Assay results taken from patent US20250051338A1, “TYK2 DEGRADERS AND USES THEREOF” (Kymera Therapeutics, Inc., priority 2021, published 2025).

Assays:
Type in all cases: cell-based
TYK2 [1] = target: T1, TYK2 (Homo sapiens, UniProt P29597); assay: TYK2 degradation MSD assay in EBV-B cells; parameters: endogenous in cells; host or cells: EBV-B cells; conditions: 4 to 24 hours incubation, read-out: TYK2 MSD DC50 rating in EBV-B
How it was run: (§1)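 MSD electrochemiluminescence readout of residual TYK2 in RIPA lysates after 4–24 h compound exposure at 37° C. Dosing: 9 concentrations, 1:3 steps, top 1 to 10 μM. DC50 fitted by four-parameter inhibitor vs. response regression.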

TYK2 [2] = target: T1, TYK2; assay: TYK2 degradation MSD assay in human PBMC cells; parameters: endogenous in cells; host or cells: human PBMC; conditions: 4 to 24 hours incubation, read-out: TYK2 MSD DC50 rating in human PBMC
How it was run: as §1

TYK2 [3] = target: T1, TYK2; assay: TYK2 degradation MSD assay in OCI-LY10 cells; parameters: endogenous in cells; host or cells: EBV-B cells; conditions: 4 to 24 hours incubation, read-out: TYK2 MSD DC50 rating in OCI-LY10
How it was run: as §1

T1 sequence (P29597 whole entry): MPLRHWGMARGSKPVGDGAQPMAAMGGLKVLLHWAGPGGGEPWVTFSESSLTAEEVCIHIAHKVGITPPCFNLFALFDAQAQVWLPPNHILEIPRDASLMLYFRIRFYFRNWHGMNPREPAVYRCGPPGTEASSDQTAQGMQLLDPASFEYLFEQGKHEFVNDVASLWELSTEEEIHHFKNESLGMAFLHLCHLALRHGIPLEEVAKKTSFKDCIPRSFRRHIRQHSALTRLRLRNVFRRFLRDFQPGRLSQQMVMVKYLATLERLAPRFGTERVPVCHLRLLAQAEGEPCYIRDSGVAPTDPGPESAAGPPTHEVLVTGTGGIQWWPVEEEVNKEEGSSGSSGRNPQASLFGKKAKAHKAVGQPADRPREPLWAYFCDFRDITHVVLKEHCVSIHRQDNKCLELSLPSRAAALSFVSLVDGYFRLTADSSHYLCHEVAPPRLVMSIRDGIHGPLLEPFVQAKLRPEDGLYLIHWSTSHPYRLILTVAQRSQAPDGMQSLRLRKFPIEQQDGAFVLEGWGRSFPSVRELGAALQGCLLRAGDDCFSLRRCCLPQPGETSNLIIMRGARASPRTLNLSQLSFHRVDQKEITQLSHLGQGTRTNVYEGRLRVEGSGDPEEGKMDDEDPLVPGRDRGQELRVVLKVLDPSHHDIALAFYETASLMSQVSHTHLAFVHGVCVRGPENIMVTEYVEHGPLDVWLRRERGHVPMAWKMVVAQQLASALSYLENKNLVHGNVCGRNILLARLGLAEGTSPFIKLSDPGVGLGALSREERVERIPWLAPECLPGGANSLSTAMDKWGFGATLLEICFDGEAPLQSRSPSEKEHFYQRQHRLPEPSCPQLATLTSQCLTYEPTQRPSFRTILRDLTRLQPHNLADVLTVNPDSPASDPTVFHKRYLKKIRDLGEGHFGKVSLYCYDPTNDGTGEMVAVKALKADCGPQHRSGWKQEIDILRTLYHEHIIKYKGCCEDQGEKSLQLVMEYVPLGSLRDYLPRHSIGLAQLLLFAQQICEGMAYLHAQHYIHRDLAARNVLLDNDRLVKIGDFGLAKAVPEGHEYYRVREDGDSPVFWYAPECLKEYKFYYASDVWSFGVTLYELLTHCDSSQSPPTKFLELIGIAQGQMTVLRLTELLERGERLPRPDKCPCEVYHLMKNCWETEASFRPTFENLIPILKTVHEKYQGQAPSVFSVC

Row | Compound | DC50 (TYK2 [1]) [nM] | DC50 (TYK2 [2]) [nM] | DC50 (TYK2 [3]) [nM]
1 | CNc1cc(Nc2cccc(CN3CCC(c4ncc(-c5ccc6c(c5)n(C)c(=O)n6C5CCC(=O)NC5=O)cn4)CC3)c2)nn2c(C(=O)NC3CC3)cnc12 (stereo not drawn) [Example K585] | > 100 | > 100 | 1 to 10
2 | CNc1cc(Nc2cccc(CN3CC4(CCN(c5ccc(-c6ccc7c(c6)n(C)c(=O)n7C6CCC(=O)NC6=O)cn5)CC4)C3)c2)nn2c(C(=O)NC3CC3)cnc12 (stereo not drawn) [Example K586] | > 100 | > 100 | 1 to 10
3 | CNc1cc(Nc2cccc(CN3CCN(C(=O)CCc4ccc(-c5ccc6c(c5)n(C)c(=O)n6C5CCC(=O)NC5=O)cc4)CC3)c2)nn2c(C(=O)NC3CC3)cnc12 (stereo not drawn) [Example K587] | > 100 | > 100 | 1 to 10
4 | CNc1cc(Nc2cccc(CN3CCC4(CCN(c5ccc(-c6ccc7c(c6)n(C)c(=O)n7C6CCC(=O)NC6=O)cc5)C4)C3)c2)nn2c(C(=O)NC3CC3)cnc12 (stereo not drawn) [Example K588] | > 100 | > 100 | 1 to 10
5 | CNc1cc(Nc2cccc(CN3CCC(N4CC(N5CCN(c6ccc7c(c6)n(C)c(=O)n7C6CCC(=O)NC6=O)CC5)C4)CC3)c2)nn2c(C(=O)NC3CC3)cnc12 (stereo not drawn) [Example K589] | > 100 | > 100 | < 1
6 | CNc1cc(Nc2cccc(CN3CCC(OC4CC(c5cccc6c5n(C)c(=O)n6C5CCC(=O)NC5=O)C4)CC3)c2)nn2c(C(=O)NC3CC3)cnc12 (stereo not drawn) [Example K590] | > 100 | > 100 | < 1
7 | CNc1cc(Nc2cccc(CN3CCN(c4ccc5c(c4)n(C)c(=O)n5C4CCC(=O)NC4=O)CC3)c2)nn2c(C(=O)NC3CC3)cnc12 (stereo not drawn) [Example K591] | > 100 | > 100 | > 100
8 | CNc1cc(Nc2cccc(CN3CC4(CCN(c5cccc6c5n(C)c(=O)n6C5CCC(=O)NC5=O)CC4)C3)c2)nn2c(C(=O)NC3CC3)cnc12 (stereo not drawn) [Example K592] | > 100 | > 100 | 1 to 10
9 | CNc1cc(Nc2cccc(CN(C)C3CCN(c4ccc5c(c4)n(C)c(=O)n5C4CCC(=O)NC4=O)CC3)c2)nn2c(C(=O)NC3CC3)cnc12 (stereo not drawn) [Example K593] | > 100 | > 100 | > 100
10 | CNc1cc(Nc2cccc(CN3CCN(c4cccc5c4n(C)c(=O)n5C4CCC(=O)NC4=O)CC3)c2)nn2c(C(=O)NC3CC3)cnc12 (stereo not drawn) [Example K594] | > 100 | > 100 | > 100
11 | CNc1cc(Nc2cccc(CN3CCC(OCC#Cc4cccc5c4n(C)c(=O)n5C4CCC(=O)NC4=O)CC3)c2)nn2c(C(=O)NC3CC3)cnc12 (stereo not drawn) [Example K595] | > 100 | > 100 | 1 to 10
12 | CNc1cc(Nc2cccc(CN3CCC(OC4CC(c5ccc6c(c5)n(C)c(=O)n6C5CCC(=O)NC5=O)C4)CC3)c2)nn2c(C(=O)NC3CC3)cnc12 (stereo not drawn) [Example K596] | > 100 | > 100 | < 1
13 | CNc1cc(Nc2cccc(CN(C)C3CCN(c4cccc5c4n(C)c(=O)n5C4CCC(=O)NC4=O)CC3)c2)nn2c(C(=O)NC3CC3)cnc12 (stereo not drawn) [Example K597] | > 100 | > 100 | > 100
14 | CNC(=O)c1cnc(Nc2ccc(C(=O)NCCCCCCCCc3cc(N4CCCC(C(=O)Nc5ccc(=O)n(CC(=O)OC)c5)C4)ccn3)cn2)cc1Nc1cccc(-c2ncc(F)cn2)c1OC (stereo not drawn) [Example K598] | > 100 | > 100 | > 100
15 | CNc1cc(Nc2cccn(-c3ccc(C(=O)NCCCCCCCCc4cncc(N5CCC[C@H](C(=O)Nc6ccc(=O)n(CC(=O)OC)c6)C5)c4)cn3)c2=O)nn2c(C(=O)N[C@@H]3C[C@@H]3F)cnc12 [Example K599] | > 100 | > 100 | > 100
16 | CNc1cc(Nc2cccc(CN3CCC4(CC3)CCN(c3ccc5c(c3)[nH]c(=O)n5C3CCC(=O)NC3=O)C4)c2)nn2c(C(=O)NC3CC3)cnc12 (stereo not drawn) [Example K601] | > 100 | > 100 | > 100
17 | CNc1cc(Nc2cccc(CN3CCN(Cc4ccc5c(c4)n(C)c(=O)n5C4CCC(=O)NC4=O)CC3)c2)nn2c(C(=O)NC3CC3)cnc12 (stereo not drawn) [Example K602] | > 100 | > 100 | > 100
18 | CNc1cc(Nc2cccc(CN3CC(N4CCN(c5ccc6c(c5)n(C)c(=O)n6C5CCC(=O)NC5=O)CC4)C3)c2)nn2c(C(=O)NC3CC3)cnc12 (stereo not drawn) [Example K603] | > 100 | > 100 | 1 to 10
19 | CNc1cc(Nc2cccc(CN3CC4(C3)CN(c3ncc(C#Cc5ccc6c(c5)n(C)c(=O)n6C5CCC(=O)NC5=O)cn3)C4)c2)nn2c(C(=O)NC3CC3)cnc12 (stereo not drawn) [Example K604] | > 100 | > 100 | < 1
20 | CNc1cc(Nc2cccc(CN(C)Cc3ccc(-c4ccc5c(c4)n(C)c(=O)n5C4CCC(=O)NC4=O)cn3)c2)nn2c(C(=O)NC3CC3)cnc12 (stereo not drawn) [Example K605] | > 100 | > 100 | > 100
21 | CNc1cc(Nc2cccc(CN3CCC(CN(C)c4ccc5c(c4)n(C)c(=O)n5C4CCC(=O)NC4=O)CC3)c2)nn2c(C(=O)NC3CC3)cnc12 (stereo not drawn) [Example K606] | > 100 | > 100 | > 100
22 | CNc1cc(Nc2cccc(CN3CC(C)(Cc4ccc5c(c4)n(C)c(=O)n5C4CCC(=O)NC4=O)C3)c2)nn2c(C(=O)NC3CC3)cnc12 (stereo not drawn) [Example K607] | > 100 | > 100 | > 100
23 | CNc1cc(Nc2cccc(CN3CCCC4(C3)CN(c3ncc(C#Cc5ccc6c(c5)n(C)c(=O)n6C5CCC(=O)NC5=O)cn3)C4)c2)nn2c(C(=O)NC3CC3)cnc12 (stereo not drawn) [Example K608] | > 100 | > 100 | 1 to 10
24 | CNc1cc(N2CCc3c(-c4ccc(CN5CCC6(CC5)CCN(c5ccc(-c7ccc8c(c7)n(C)c(=O)n8C7CCC(=O)NC7=O)cc5)CC6)cn4)cccc32)nn2c(C(=O)N[C@@H]3C[C@@H]3F)cnc12 (stereo partly drawn) [Example K609] | > 100 | > 100 | 1 to 10

Other lines, results leading:

Row | DC50 (TYK2 [1]) [nM] | DC50 (TYK2 [2]) [nM] | DC50 (TYK2 [3]) [nM] | Compound
25 | > 100 | > 100 | < 1 | CNc1cc(Nc2cccc(-c3ccc(CN4CCN(C5CCC(c6ccc(-c7ccc8c(c7)n(C)c(=O)n8C7CCC(=O)NC7=O)cc6)CC5)CC4)cn3)c2OC)nn2c(C(=O)N[C@@H]3C[C@@H]3F)cnc12 (stereo partly drawn) [Example K567]
26 | > 100 | > 100 | 1 to 10 | CNc1cc(N2CCc3c(N4CCC(CC5CC6(CCN(C(=O)c7ccc(Cl)c(N8CCC(=O)NC8=O)c7)CC6)C5)CC4)cccc32)nn2c(C(=O)N[C@@H]3C[C@@H]3F)cnc12 [Example K568]
27 | > 100 | > 100 | > 100 | CNc1cc(Nc2cccn(-c3ccc(C(=O)NCCCCCCCCc4cncc(N5CCC[C@H](C(=O)Nc6ccc(=O)n(CC(=O)O)c6)C5)c4)cn3)c2=O)nn2c(C(=O)N[C@@H]3C[C@@H]3F)cnc12 [Example K571]
28 | > 100 | > 100 | 1 to 10 | CNc1cc(N2CCc3c(N4CCC(CN5CC6(C5)CN(c5ccc(-c7ccc8c(c7)n(C)c(=O)n8C7CCC(=O)NC7=O)cc5)C6)CC4)cccc32)nn2c(C(=O)N[C@@H]3C[C@@H]3F)cnc12 (stereo partly drawn) [Example K573]
29 | > 100 | > 100 | 1 to 10 | CNc1cc(N2CCc3c(-c4ccc(CN5CC6(C5)CN(c5ccc(-c7ccc8c(c7)n(C)c(=O)n8C7CCC(=O)NC7=O)cc5)C6)cn4)cccc32)nn2c(C(=O)N[C@@H]3C[C@@H]3F)cnc12 (stereo partly drawn) [Example K574]
30 | > 100 | > 100 | > 100 | CNc1cc(Nc2cccc(CN3CCN(c4ccc(-c5ccc6c(c5)n(C)c(=O)n6C5CCC(=O)NC5=O)cc4)CC3)c2OC)nn2c(C(=O)N[C@@H]3C[C@@H]3F)cnc12 (stereo partly drawn) [Example K576]
31 | > 100 | > 100 | 1 to 10 | CNc1cc(Nc2cc(F)cc(-c3ccc(CN4CCN(c5ccc(-c6ccc7c(c6)n(C)c(=O)n7C6CCC(=O)NC6=O)cc5)CC4)cn3)c2OC)nn2c(C(=O)N[C@@H]3C[C@@H]3F)cnc12 (stereo partly drawn) [Example K577]
32 | > 100 | > 100 | > 100 | CNc1cc(Nc2cccc(CN3CCC(c4cccc5c4n(C)c(=O)n5C4CCC(=O)NC4=O)CC3)c2)nn2c(C(=O)NC3CC3)cnc12 (stereo not drawn) [Example K578]
33 | > 100 | > 100 | > 100 | CNc1cc(Nc2cccc(CN3CCC34CN(c3ncc(C#Cc5ccc6c(c5)n(C)c(=O)n6C5CCC(=O)NC5=O)cn3)C4)c2)nn2c(C(=O)NC3CC3)cnc12 (stereo not drawn) [Example K580]
34 | > 100 | > 100 | < 1 | CNc1cc(Nc2cccc(CN3CCC([C@@H]4CCN(c5ccc6c(c5)n(C)c(=O)n6C5CCC(=O)NC5=O)C4)CC3)c2)nn2c(C(=O)NC3CC3)ncc12 (stereo partly drawn) [Example K581]
35 | > 100 | > 100 | > 100 | CNc1cc(Nc2cccc(CN3CCC4(CCCN(CCC5C=c6c(n(C7CCC(=O)NC7=O)c(=O)n6C)=CC5)C4)C3)c2)nn2c(C(=O)NC3CC3)cnc12 (stereo not drawn) [Example K582]
36 | > 100 | > 100 | < 1 | CNc1cc(Nc2cccc(CN3CCC(N(C)CC4CCN(c5ccc(-c6ccc7c(c6)n(C)c(=O)n7C6CCC(=O)NC6=O)cc5)C4)CC3)c2)nn2c(C(=O)NC3CC3)cnc12 (stereo not drawn) [Example K583]
37 | > 100 | > 100 | > 100 | CNc1cc(Nc2cccc(CN3CCC4(CC3)CC(Cc3ccc5c(c3)n(C)c(=O)n5C3CCC(=O)NC3=O)C4)c2)nn2c(C(=O)NC3CC3)cnc12 (stereo not drawn) [Example K584]
